From ChEMBL document CHEMBL5214960 (J Med Chem, 2022)
Where a chain is given by its changes, count along the chain named. ≈ marks a conversion by molar mass, not a printed value.

How the values were obtained:
[1] = Inhibition of PTP-Meg2 (unknown origin); parameters: species or system Homo sapiens
[2] = target: T1, Low molecular weight phosphotyrosine protein phosphatase (Mus musculus, UniProt Q9D358); assay: Inhibition of N-terminal His-tagged full length mouse LMW-PTP expressed in Escherichia coli BL21(DE3) by […] analysis
T1 sequence (Q9D358 whole entry): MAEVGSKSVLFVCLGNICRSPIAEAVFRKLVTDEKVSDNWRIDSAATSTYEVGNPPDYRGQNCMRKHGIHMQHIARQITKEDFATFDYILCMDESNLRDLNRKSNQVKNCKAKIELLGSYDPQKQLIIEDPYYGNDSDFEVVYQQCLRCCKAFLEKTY

[3] = target: T2, Low molecular weight phosphotyrosine protein phosphatase (Homo sapiens, UniProt P24666); assay: Inhibition of His-tagged human LMW-PTP expressed in Escherichia coli BL21 using pNPP as substrate incubated for 10 mins by microplate reader based spectrophotometric analysis
T2 sequence (P24666 whole entry): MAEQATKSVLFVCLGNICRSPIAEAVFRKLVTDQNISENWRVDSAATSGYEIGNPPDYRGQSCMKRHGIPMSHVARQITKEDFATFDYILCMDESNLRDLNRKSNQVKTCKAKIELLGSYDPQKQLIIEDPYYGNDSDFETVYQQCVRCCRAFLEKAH

[4] = target: Dual specificity protein phosphatase 23 (Homo sapiens, UniProt Q9BVJ7); assay: Inhibition of VHZ (unknown origin)
[5] = Aqueous solubility of compound at pH 6 by HPLC analysis; type: physicochemical; details: buffer
CYP2D6 = CYP2D6 (Homo sapiens, UniProt P10635); assay: Inhibition of human hepatic CYP2D6 using bufuralol HCL as substrate measured after 3 mins by LC-MS analysis relative to control; type: ADME, tissue-based; parameters: concentration or dose not given beside the values; details: human hepatic CYP2D6 (liver), probe bufuralol HCl
CYP2C9 = CYP2C9 (Homo sapiens, UniProt P11712); assay: Inhibition of human hepatic CYP2C9 using diclofenac as substrate measured after 10 mins by LC-MS analysis relative to control; type: ADME, tissue-based; parameters: concentration or dose not given beside the values; details: human hepatic CYP2C9 (liver), probe diclofenac
CYP3A4 = CYP3A4 (Homo sapiens, UniProt P08684); assay: Inhibition of human hepatic CYP3A4 using midazolam as substrate measured after 3 mins by LC-MS analysis relative to control; type: ADME, tissue-based; parameters: concentration or dose not given beside the values; details: human hepatic CYP3A4 (liver), probe midazolam
[6] = Metabolic stability in human hepatic microsome at 4 uM measured after 30 mins by LC-MS analysis; type: ADME; details: liver microsomes, read-out: Stability
[7] = Metabolic stability in mouse hepatic microsome at 4 uM measured after 30 mins by LC-MS analysis; type: ADME; details: liver microsomes, read-out: Stability
[8] = Metabolic stability in dog hepatic microsome at 4 uM measured after 30 mins by LC-MS analysis; type: ADME, Canis lupus familiaris; details: liver microsomes, read-out: Stability
[9] = Plasma protein binding in mouse assessed as unbound fraction measured after 4.5 hrs by LC-MS/MS analysis; type: ADME, cell-free
[10] = AUC(0 to 8 hrs) in CD-1 mouse plasma at 10 mg/kg, po measured after 8 hrs by LC-MS/MS analysis; type: ADME, organism-based; parameters: dose 10 mg/kg, time 8 hrs, route po; details: in vivo
[11] = AUC(0 to 8 hrs) in CD-1 mouse plasma at 2 mg/kg, iv measured after 8 hrs by LC-MS/MS analysis; type: ADME, organism-based; parameters: dose 2 mg/kg, time 8 hrs, route iv; details: in vivo
[12] = Cmax in CD-1 mouse plasma at 10 mg/kg, po measured after 8 hrs by LC-MS/MS analysis; type: ADME, organism-based; parameters: dose 10 mg/kg, time 8 hrs, route po; details: CD-1, mouse, plasma
[13] = Cmax in CD-1 mouse plasma at 2 mg/kg, iv measured after 8 hrs by LC-MS/MS analysis; type: ADME, organism-based; parameters: time 8 hrs, dose 2 mg/kg, route iv
[14] = Unbound Cmax in plasma of CD-1 mouse at 10 mg/kg, po measured after 8 hrs by LC-MS/MS analysis; type: ADME, organism-based; details: in vivo
[15] = Unbound Cmax in plasma of CD-1 mouse at 2 mg/kg, iv measured after 8 hrs by LC-MS/MS analysis; type: ADME, organism-based; details: in vivo
[16] = Volume of distribution at steady state in CD-1 mouse plasma at 2 mg/kg, iv measured after 8 hrs by LC-MS/MS analysis; type: ADME, organism-based; details: in vivo
[17] = Half life in CD-1 mouse plasma at 2 mg/kg, iv measured after 8 hrs by LC-MS/MS analysis; type: ADME, organism-based; details: CD-1, mouse, plasma
[18] = Half life in CD-1 mouse plasma at 10 mg/kg, po measured after 8 hrs by LC-MS/MS analysis; type: ADME, organism-based; details: in vivo
[19] = Oral bioavailability in CD-1 mouse plasma at 10 mg/kg measured after 8 hrs by LC-MS/MS analysis; type: ADME, organism-based; details: mouse, in vivo, po, 10 mg/kg, 8 h
[20] = AUC(0 to 12 hrs) in Sprague-Dawley rat plasma at 30 mg/kg, po measured after 24 hrs by LC-MS/MS analysis; type: ADME, organism-based; parameters: time 24 hrs, dose 30 mg/kg, route po; details: in vivo
[21] = Cmax in Sprague-Dawley rat plasma at 30 mg/kg, po measured after 24 hrs by LC-MS/MS analysis; type: ADME, organism-based; parameters: time 24 hrs, dose 30 mg/kg, route po; details: in vivo
[22] = Unbound Cmax in plasma of Sprague-Dawley rat at 30 mg/kg, po measured after 24 hrs by LC-MS/MS analysis; type: ADME, organism-based; details: in vivo
[23] = Tmax in Sprague-Dawley rat plasma at 30 mg/kg, po measured after 24 hrs by LC-MS/MS analysis; type: ADME, organism-based; details: in vivo
[24] = Half life in Sprague-Dawley rat plasma at 30 mg/kg, po measured after 24 hrs by LC-MS/MS analysis; type: ADME, organism-based; details: in vivo
[25] = target: T3, Low molecular weight phosphotyrosine protein phosphatase (Rattus norvegicus, UniProt P41498); assay: Inhibition of N-terminal His-tagged full length rat LMW-PTP expressed in Escherichia coli BL21(DE3)
T3 sequence (P41498 whole entry): T1 sequence (Q9D358 whole entry) with K35N, R65K, K80R, Y158H

Sequence of CYP3A4 (P08684 whole entry): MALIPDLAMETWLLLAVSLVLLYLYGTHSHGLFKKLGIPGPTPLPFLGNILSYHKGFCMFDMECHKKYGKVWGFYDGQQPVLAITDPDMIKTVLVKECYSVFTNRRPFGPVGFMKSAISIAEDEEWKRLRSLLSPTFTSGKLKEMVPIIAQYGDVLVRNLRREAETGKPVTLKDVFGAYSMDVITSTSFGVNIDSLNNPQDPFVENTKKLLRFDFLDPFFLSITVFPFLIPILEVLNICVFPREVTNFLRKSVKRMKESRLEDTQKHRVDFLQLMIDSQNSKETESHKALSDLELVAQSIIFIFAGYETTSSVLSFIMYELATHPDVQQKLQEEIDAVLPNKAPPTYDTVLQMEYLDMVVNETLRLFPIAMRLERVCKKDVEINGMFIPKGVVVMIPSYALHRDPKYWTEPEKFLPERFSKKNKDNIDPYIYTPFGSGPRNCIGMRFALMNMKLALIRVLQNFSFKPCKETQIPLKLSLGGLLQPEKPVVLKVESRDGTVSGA
Sequence of CYP2C9 (P11712 whole entry): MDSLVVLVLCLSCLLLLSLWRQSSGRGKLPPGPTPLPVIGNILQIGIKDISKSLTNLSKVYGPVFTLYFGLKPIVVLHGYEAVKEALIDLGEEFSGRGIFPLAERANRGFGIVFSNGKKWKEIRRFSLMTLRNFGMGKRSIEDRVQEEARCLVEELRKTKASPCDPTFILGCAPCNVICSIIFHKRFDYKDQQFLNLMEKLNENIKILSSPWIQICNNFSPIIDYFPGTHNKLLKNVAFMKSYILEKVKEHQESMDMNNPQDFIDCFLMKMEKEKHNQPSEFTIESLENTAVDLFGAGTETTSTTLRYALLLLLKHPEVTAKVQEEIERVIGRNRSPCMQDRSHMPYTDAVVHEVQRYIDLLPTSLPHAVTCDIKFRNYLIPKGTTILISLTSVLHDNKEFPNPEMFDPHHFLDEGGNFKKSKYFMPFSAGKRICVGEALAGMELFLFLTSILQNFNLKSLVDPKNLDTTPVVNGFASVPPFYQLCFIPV
Sequence of Dual specificity protein phosphatase 23 (Q9BVJ7 whole entry): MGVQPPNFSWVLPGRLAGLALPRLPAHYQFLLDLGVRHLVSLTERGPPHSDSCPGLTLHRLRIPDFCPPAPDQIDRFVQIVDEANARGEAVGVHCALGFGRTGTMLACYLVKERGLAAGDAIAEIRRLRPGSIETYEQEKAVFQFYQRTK
Sequence of CYP2D6 (P10635 whole entry): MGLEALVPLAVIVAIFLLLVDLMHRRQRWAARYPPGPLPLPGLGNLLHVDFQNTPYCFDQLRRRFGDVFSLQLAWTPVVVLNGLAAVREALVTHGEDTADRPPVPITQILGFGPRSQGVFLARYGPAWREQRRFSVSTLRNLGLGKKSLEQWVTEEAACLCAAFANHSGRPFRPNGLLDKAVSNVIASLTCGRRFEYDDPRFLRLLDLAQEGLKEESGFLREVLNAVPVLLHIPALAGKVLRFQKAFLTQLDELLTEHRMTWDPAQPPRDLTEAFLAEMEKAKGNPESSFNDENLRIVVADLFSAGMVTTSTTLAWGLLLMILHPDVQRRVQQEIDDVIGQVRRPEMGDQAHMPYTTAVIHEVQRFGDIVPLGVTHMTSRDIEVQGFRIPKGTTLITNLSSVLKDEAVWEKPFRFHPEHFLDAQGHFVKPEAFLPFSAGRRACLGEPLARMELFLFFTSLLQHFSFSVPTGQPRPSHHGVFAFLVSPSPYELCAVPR

Cc1c(Br)cc(NC(=O)CS(=O)(=O)O)cc1Br
IC50 [1]: > 100000 nM | IC50 [2]: 62 nM | IC50 [3]: 2200 nM | IC50 [4]: > 100000 nM | solubility [5]: 740 µg/mL (≈ 1910 µM) | inhibition at 0.05 h (CYP2D6): 1% | inhibition at 10 min (CYP2C9): 18% | inhibition at 0.05 h (CYP3A4): 15% | remaining at 0.5 h, 4 µM [6]: 7% | remaining at 0.5 h, 4 µM [7]: 0% | remaining at 0.5 h, 4 µM [8]: 23% | Fu [9]: < 0.008 | AUC [10]: 8.8 µM·h | AUC [11]: 4.1 µM·h | Cmax [12]: 2000 nM | Cmax [13]: 2000 nM | fCmax [14]: < 16 nM | fCmax [15]: < 16 nM | Vdss [16]: 0.58 L/kg | half-life [17]: 1.5 h | t1/2 [18]: 4.2 h | F [19]: 43% | AUC [20]: 21.1 µM·h | Cmax [21]: 3030 nM | fCmax [22]: < 85 nM | Tmax [23]: 1.7 h | t1/2 [24]: 3.6 h | IC50 [25]: 62 nM
